Assay results published in patent US6737383B1, “Herbicidal oxadiazolidines” (priority 1999, dated 2004).

Columns and labels:
black nightshade = assay: Test E black nightshade; format: in vivo, Solanum nigra; settings: Preemergence
annual bluegrass = assay: Test E annual bluegrass; format: in vivo, Poa annua; settings: Preemergence
sunflower = assay: Test E sunflower; format: in vivo, Helianthus annuus; settings: Postemergence; for Plant response rating, Sunflower: 0 to 100 scale
Outline: (§1)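 Greenhouse test: for postemergence, foliar application at 1- to 4-leaf stage; compound in non-phytotoxic solvent with surfactant. Rating is visual, relative to untreated controls, about 21 to 28 days after treatment.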

guineagrass = assay: Test D guineagrass; format: in vivo, Panicum maximum; settings: Postemergence, 0 to 100 scale
jointed goatgrass = assay: Test E jointed goatgrass; format: in vivo, Aegilops cylindrica; settings: Preemergence
spring wheat = assay: Test E spring wheat; format: in vivo, Triticum aestivum; settings: Postemergence; for Plant response rating, Spring Wheat: 0 to 100 scale
Outline: as §1

tall mallow = assay: Test D tall mallow; format: in vivo, Malva sylvestris; settings: Postemergence, 0 to 100 scale; for Tall Mallow plant response rating: 0 no injury, 100 complete control
redroot pigweed = assay: Test E redroot pigweed; format: in vivo, Amaranthus retroflexus; settings: Preemergence
wild mustard = assay: Test E wild mustard; format: in vivo, Sinapis arvensis; settings: Postemergence; for Plant response rating, Wild mustard: 0 to 100 scale
Outline: as §1

littleseed canarygrass = assay: Test E littleseed canarygrass; format: in vivo, Phalaris minor; settings: Postemergence; for Plant response rating, LS canarygrass: 0 to 100 scale
Outline: as §1

field violet = assay: Test E field violet; format: in vivo, Viola arvensis; settings: Preemergence
Spanishneedles = assay: Test D Spanishneedles; format: in vivo, Bidens bipinnata; settings: Postemergence, 0 to 100 scale; for Spanishneedles plant response rating: 0 no injury, 100 complete control
chickweed [1] = assay: Test E chickweed; format: in vivo, Stellaria media; settings: Postemergence; for Plant response rating, Chickweed: 0 to 100 scale
Outline: as §1

blackgrass = assay: Test E blackgrass; format: in vivo, Alopecurus myosuroides; settings: Postemergence; for Plant response rating, Blackgrass: 0 to 100 scale
Outline: as §1

common pursiane = assay: Test D common purslane; format: in vivo, Portulaca oleracea; settings: Postemergence, 0 to 100 scale
pitted morningglory = assay: Test D pitted morningglory; format: in vivo, Ipomoea lacunosa; settings: Postemergence, 0 to 100 scale
chickweed [2] = assay: Test E chickweed; format: in vivo, Stellaria media; settings: Preemergence
wild buckwheat = assay: Test E wild buckwheat; format: in vivo, Polygonum convolvulus; settings: Postemergence; for Plant response rating, Wild buckwheat: 0 to 100 scale
Outline: as §1

Italian ryegrass = assay: Test E Italian ryegrass; format: in vivo, Lolium multiflorum; settings: Postemergence; for Plant response rating, I. Ryegrass: 0 to 100 scale
Outline: as §1

surinam grass = assay: Test D surinam grass; format: in vivo, Brachiaria decumbens; settings: Rate 500 g/ha; Postemergence; 0 to 100 scale
[3] = Rate 125 g/ha, 0 to 100 scale (0 no effect, 100 complete control)
[4] = Rate 500 g/ha, 0 to 100 scale where 0 is no effect and 100 is complete control
[5] = Rate 500 g/ha, 0 no effect, 100 complete control
[6] = Rate 250 g/ha, 0 to 100 scale where 0 is no effect and 100 is complete control
[7] = Rate 64 g/ha, 0 no injury, 100 complete control
[8] = Rate 125 g/ha, 0 no injury, 100 complete control

C=CCn1c(=O)on(C(=O)N(c2ccc(F)cc2)C(C)C)c1=O [Compound 146]
85: Plant response rating, Blk nightshade (black nightshade; [3])
40: Plant response rating, Sunflower (sunflower; Rate 125 g/ha) | Sunflower plant response rating (sunflower; [6]) | Wild mustard plant response rating (wild mustard; [6]) | Plant response rating, Blackgrass (blackgrass; [5]) | Plant response rating, P. morninglory (pitted morningglory; [8])
90: Plant response rating, Annual bluegras (annual bluegrass; [4])
60: Plant response rating, Annual bluegras (annual bluegrass; [3]) | Plant response rating, Guineagrass (guineagrass; Rate 500 g/ha) | Plant response rating, Wild mustard (wild mustard; Rate 62 g/ha) | Plant response rating, Wild mustard (wild mustard; [5])
0: Plant response rating, Sunflower (sunflower; Rate 62 g/ha) | Tall Mallow plant response rating (tall mallow; Rate 64 g/ha) | Tall Mallow plant response rating (tall mallow; Rate 125 g/ha) | Plant response rating, Tall Mallow (tall mallow; Rate 250 g/ha) | Plant response rating, Chickweed (chickweed [1]; Rate 125 g/ha) | Chickweed plant response rating (chickweed [1]; [6]) | Plant response rating, C. purslane (common pursiane; [7]) | Plant response rating, C. purslane (common pursiane; [8]) | Plant response rating, Wild buckwheat (wild buckwheat; Rate 125 g/ha)
80: Annual bluegras plant response rating (0 to 100 scale) (annual bluegrass; Rate 250 g/ha) | Chickweed plant response rating (0 to 100 scale) (chickweed [2]; Rate 250 g/ha) | Plant response rating Surinam grass (surinam grass)
65: Plant response rating, LS canarygrass (littleseed canarygrass; [5]) | Plant response rating, P. morninglory (pitted morningglory; Rate 500 g/ha)
45: Plant response rating, Jointed goatgra (jointed goatgrass; [3])
15: Blackgrass plant response rating (blackgrass; [6])
30: Plant response rating, LS canarygrass (littleseed canarygrass; Rate 62 g/ha) | Plant response rating, LS canarygrass (littleseed canarygrass; Rate 125 g/ha) | LS canarygrass plant response rating (littleseed canarygrass; [6]) | Field violet plant response rating (0 to 100 scale) (field violet; Rate 250 g/ha) | Plant response rating, Chickweed (chickweed [1]; Rate 62 g/ha) | Plant response rating, Chickweed (chickweed [1]; [5]) | Plant response rating, P. morninglory (pitted morningglory; [7]) | Plant response rating, Chickweed (chickweed [2]; [3])
70: Plant response rating, Redroot pigweed (redroot pigweed; [3]) | Plant response rating, Blackgrass (blackgrass; Rate 62 g/ha) | Plant response rating, Chickweed (chickweed [2]; [4])
20: Plant response rating, Spring Wheat (spring wheat; [5]) | Plant response rating, Spanishneedles (Spanishneedles; Rate 500 g/ha) | Plant response rating, C. purslane (common pursiane; Rate 250 g/ha) | Plant response rating, C. purslane (common pursiane; Rate 500 g/ha) | Plant response rating, Wild buckwheat (wild buckwheat; Rate 62 g/ha)
50: Plant response rating, Sunflower (sunflower; [5]) | Jointed goatgra plant response rating (0 to 100 scale) (jointed goatgrass; Rate 250 g/ha) | Plant response rating, Jointed goatgra (jointed goatgrass; [4]) | Plant response rating, Tall Mallow (tall mallow; Rate 500 g/ha) | Plant response rating, Wild mustard (wild mustard; Rate 125 g/ha) | Plant response rating, Field violet (field violet; [4]) | Plant response rating, P. morninglory (pitted morningglory; Rate 250 g/ha) | Plant response rating, Wild buckwheat (wild buckwheat; [5]) | Plant response rating, I. Ryegrass (Italian ryegrass; Rate 62 g/ha) | Plant response rating, I. Ryegrass (Italian ryegrass; [5])
25: Plant response rating, Blackgrass (blackgrass; Rate 125 g/ha)
35: Plant response rating, Guineagrass (guineagrass; Rate 250 g/ha)
100: Plant response rating, Blk nightshade (black nightshade; [4]) | Redroot pigweed plant response rating (0 to 100 scale) (redroot pigweed; Rate 250 g/ha) | Plant response rating, Redroot pigweed (redroot pigweed; [4])
10: Blk nightshade plant response rating (0 to 100 scale) (black nightshade; Rate 250 g/ha) | Plant response rating, Guineagrass (guineagrass; [7]) | Plant response rating, Guineagrass (guineagrass; [8]) | Plant response rating, Spring Wheat (spring wheat; Rate 62 g/ha) | Plant response rating, Spring Wheat (spring wheat; Rate 125 g/ha) | Spring Wheat plant response rating (spring wheat; [6]) | Plant response rating, Field violet (field violet; [3]) | Spanishneedles plant response rating (Spanishneedles; Rate 64 g/ha) | Spanishneedles plant response rating (Spanishneedles; Rate 125 g/ha) | Plant response rating, Spanishneedles (Spanishneedles; Rate 250 g/ha) | Wild buckwheat plant response rating (wild buckwheat; [6]) | Plant response rating, I. Ryegrass (Italian ryegrass; Rate 125 g/ha) | I. Ryegrass plant response rating (Italian ryegrass; [6])
